Laboratory results published in patent CN1221752A, “与阿卡加定相关的新型羊毛硫抗生素及其制备方法和用途” (priority 1997, dated 1999).
Where two headings read alike, the source gives them in different places.

Key:
金黄色葡萄球菌SG511 = type: cell-based, 金黄色葡萄球菌
金黄色葡萄球菌Exp54146 = type: cell-based, 金黄色葡萄球菌; conditions: strain Exp54146
化脓葡萄球菌A561 = type: cell-based, 化脓葡萄球菌; conditions: strain A561
屎肠球菌M78L = type: cell-based, 屎肠球菌; conditions: strain M78L
大肠杆菌 = type: cell-based
011HT3 = assay: In vitro antibacterial activity, MIC, 18 h; type: cell-based; conditions: incubation time 18h
011HT18 = assay: In vitro antibacterial activity, MIC, 18 h; type: cell-based; conditions: incubation time 18h; strain 011HT18
表皮葡萄球菌 012GO20 = assay: In vitro antibacterial activity, MIC, 18 h; type: cell-based; conditions: incubation time 18h; strain 012GO20
金黄色葡萄球菌 O11HT1 = assay: In vitro antibacterial activity, MIC, 18 h; type: cell-based; conditions: incubation time 18h; strain O11HT1
金黄色葡萄球菌 011DU5 = assay: In vitro antibacterial activity, MIC, 18 h; type: cell-based; conditions: incubation time 18h; strain 011DU5
金黄色葡萄球菌 011CB20 = assay: In vitro antibacterial activity, MIC, 18 h; type: cell-based; conditions: incubation time 18h; strain 011CB20
金黄色葡萄球菌 0121O64 = assay: In vitro antibacterial activity, MIC, 18 h; type: cell-based; conditions: incubation time 18h; strain 0121O64
表皮葡萄球菌 012GO42 = assay: In vitro antibacterial activity, MIC, 18 h; type: cell-based; conditions: incubation time 18h; strain 012GO42
[1] = tested on: Staph.coag.negative012HT5; assay: In vitro antibacterial activity, MIC, 18 h; type: cell-based, Staph.coag.negative; conditions: incubation time 18h; strain 012HT5
化脓葡萄球菌 02A1SJ1 = assay: In vitro antibacterial activity, MIC, 18 h; type: cell-based; conditions: incubation time 18h; strain 02A1SJ1
化脓葡萄球菌 02A1CU1 = assay: In vitro antibacterial activity, MIC, 18 h; type: cell-based; conditions: incubation time 18h; strain 02A1CU1
化脓葡萄球菌 02A1F16 = assay: In vitro antibacterial activity, MIC, 18 h; type: cell-based; conditions: incubation time 18h; strain 02A1F16
Streptogr G02G0CB2 = assay: In vitro antibacterial activity, MIC, 18 h; type: cell-based, Streptogr G; conditions: incubation time 18h; strain 02G0CB2
S.pnenmoniae 030BI2 = assay: In vitro antibacterial activity, MIC, 18 h; type: cell-based; conditions: incubation time 18h; strain 030BI2
S.milleri 02milGR12 = assay: In vitro antibacterial activity, MIC, 18 h; type: cell-based; conditions: incubation time 18h; strain 02milGR12
S.mitis 02mitGR16 = assay: In vitro antibacterial activity, MIC, 18 h; type: cell-based; conditions: incubation time 18h; strain 02mitGR16
粪肠球菌 02D2HM9 = assay: In vitro antibacterial activity, MIC, 18 h; type: cell-based; conditions: incubation time 18h; strain 02D2HM9
粪肠球菌 02D2uC5 = assay: In vitro antibacterial activity, MIC, 18 h; type: cell-based; conditions: incubation time 18h; strain 02D2uC5
粪肠球茵 02D2DU18 = assay: In vitro antibacterial activity, MIC, 18 h; type: cell-based; conditions: incubation time 18h; strain 02D2DU18
粪肠球菌 02D2HT10 = assay: In vitro antibacterial activity, MIC, 18 h; type: cell-based; conditions: incubation time 18h; strain 02D2HT10
[2] = Solubility (physicochemical properties); conditions: methanol, water
[3] = Stability in solution (physicochemical properties); conditions: neutral / weakly alkaline vs strongly acidic / strongly alkaline media
[4] = Tolerability and toxicity; conditions: at the active concentration and the concentrations mentioned above
[5] = incubation time 24h, strain SG511
[6] = incubation time 24h, strain SG511 + 10% serum
[7] = strain 011HT3 + 50% serum (first such line)
[8] = strain 011HT3 + 50% serum (second such line)
[9] = Boc-derivative table, 接种时间24h, strain SG511
[10] = Boc-derivative table, 接种时间24h, strain SG511 + 10% serum

| Substance | MIC (金黄色葡萄球菌SG511; [5]) | MIC (金黄色葡萄球菌SG511; [6]) | MIC (金黄色葡萄球菌Exp54146; incubation time 24h) | MIC (化脓葡萄球菌A561; incubation time 24h) | MIC (屎肠球菌M78L; incubation time 24h) | MIC (大肠杆菌; incubation time 24h) | MIC (011HT3; strain 011HT3) | MIC (011HT3; [7]) | MIC (011HT3; [8]) | MIC (011HT18) | MIC (表皮葡萄球菌 012GO20) | MIC (金黄色葡萄球菌 O11HT1) | MIC (金黄色葡萄球菌 011DU5) | MIC (金黄色葡萄球菌 0121O64) | MIC (表皮葡萄球菌 012GO42) | MIC [1] | MIC (化脓葡萄球菌 02A1SJ1) | MIC (化脓葡萄球菌 02A1CU1) | MIC (化脓葡萄球菌 02A1F16) | MIC (Streptogr G02G0CB2) | further results |
| --- | --- | --- | --- | --- | --- | --- | --- | --- | --- | --- | --- | --- | --- | --- | --- | --- | --- | --- | --- | --- | --- |
| Gln(0)-阿卡加定 [Gln-Acta] | 20 µg/mL | 40 µg/mL | > 40 µg/mL | 5 µg/mL | 10 µg/mL | > 40 µg/mL |  |  |  |  |  |  |  |  |  |  |  |  |  |  |  |
| Phe-Ala(0)-阿卡加定 [Phe-Ala-Acta] | 5 µg/mL | 10 µg/mL | 20 µg/mL | > 40 µg/mL | 10 µg/mL | > 40 µg/mL |  |  |  |  |  |  |  |  |  |  |  |  |  |  |  |
| Ile(0)-阿卡加定 [Ile-Acta] | 1.2 µg/mL | 2.5 µg/mL | 2.5 µg/mL | ≤ 0.04 µg/mL | 5 µg/mL | > 40 µg/mL | 2.5 µg/mL | 2.5 µg/mL | 5 µg/mL | > 40 µg/mL | > 40 µg/mL | 1.2 µg/mL | 10 µg/mL | > 40 µg/mL | > 40 µg/mL | > 40 µg/mL | ≤ 0.04 µg/mL | ≤ 0.04 µg/mL | ≤ 0.04 µg/mL | 10 µg/mL | MIC (金黄色葡萄球菌 011CB20): 40 µg/mL; MIC (S.pnenmoniae 030BI2): 1.2 µg/mL; MIC (S.milleri 02milGR12): > 40 µg/mL; MIC (S.mitis 02mitGR16): 10 µg/mL; MIC (粪肠球菌 02D2HM9): 40 µg/mL; MIC (粪肠球菌 02D2uC5): 40 µg/mL; MIC (粪肠球茵 02D2DU18): 5 µg/mL; MIC (粪肠球菌 02D2HT10): > 40 µg/mL |
| 二-Boc-Lys(0)-阿卡加定 [Boc-Lys-Acta] |  |  |  |  |  |  | 10 µg/mL | 20 µg/mL | 40 µg/mL | > 40 µg/mL | > 40 µg/mL | 10 µg/mL | 40 µg/mL | > 40 µg/mL | > 40 µg/mL | > 40 µg/mL | 0.08 µg/mL | ≤ 0.04 µg/mL | ≤ 0.04 µg/mL | 2.5 µg/mL | MIC (金黄色葡萄球菌SG511; [9]): 2.5 µg/mL; MIC (金黄色葡萄球菌SG511; [10]): 10 µg/mL; MIC (金黄色葡萄球菌Exp54146; Boc-derivative table, 接种时间24h): 10 µg/mL; MIC (化脓葡萄球菌A561; Boc-derivative table, 接种时间24h): ≤ 0.04 µg/mL; MIC (屎肠球菌M78L; Boc-derivative table, 接种时间24h): 10 µg/mL; MIC (大肠杆菌; Boc-derivative table, 接种时间24h): > 40 µg/mL; MIC (S.pnenmoniae 030BI2): 1.2 µg/mL; MIC (S.milleri 02milGR12): 5 µg/mL; MIC (S.mitis 02mitGR16): 5 µg/mL; MIC (粪肠球菌 02D2HM9): > 40 µg/mL; MIC (粪肠球菌 02D2uC5): 40 µg/mL; MIC (粪肠球茵 02D2DU18): 10 µg/mL; MIC (粪肠球菌 02D2HT10): > 40 µg/mL |
| Lys(0)-阿卡加定 [Lys-Acta] | 1.2 µg/mL | 2.5 µg/mL | 10 µg/mL | ≤ 0.04 µg/mL | 5 µg/mL | > 40 µg/mL | 10 µg/mL | 10 µg/mL | 10 µg/mL | > 40 µg/mL | > 40 µg/mL | 0.6 µg/mL | 10 µg/mL | > 40 µg/mL | > 40 µg/mL | > 40 µg/mL | ≤ 0.04 µg/mL | ≤ 0.04 µg/mL | ≤ 0.04 µg/mL | 5 µg/mL | MIC (金黄色葡萄球菌 011CB20): > 40 µg/mL; MIC (S.pnenmoniae 030BI2): 2.5 µg/mL; MIC (S.milleri 02milGR12): 40 µg/mL; MIC (S.mitis 02mitGR16): 10 µg/mL; MIC (粪肠球菌 02D2HM9): > 40 µg/mL; MIC (粪肠球菌 02D2uC5): 40 µg/mL; MIC (粪肠球茵 02D2DU18): 5 µg/mL; MIC (粪肠球菌 02D2HT10): > 40 µg/mL |
| Ala(0)-阿卡加定 | 5 µg/mL | 20 µg/mL | 40 µg/mL | ≤ 0.04 µg/mL | 5 µg/mL | > 40 µg/mL | 20 µg/mL | 20 µg/mL | 40 µg/mL | > 40 µg/mL | > 40 µg/mL | 1.1 µg/mL | 40 µg/mL | > 40 µg/mL | > 40 µg/mL | > 40 µg/mL | ≤ 0.04 µg/mL | ≤ 0.04 µg/mL | ≤ 0.04 µg/mL | 20 µg/mL | MIC (金黄色葡萄球菌 011CB20): > 40 µg/mL; MIC (S.pnenmoniae 030BI2): 2.5 µg/mL; MIC (S.milleri 02milGR12): 40 µg/mL; MIC (S.mitis 02mitGR16): 20 µg/mL; MIC (粪肠球菌 02D2HM9): > 40 µg/mL; MIC (粪肠球菌 02D2uC5): 20 µg/mL; MIC (粪肠球茵 02D2DU18): 5 µg/mL; MIC (粪肠球菌 02D2HT10): > 40 µg/mL; Solubility [2]: 溶于甲醇和水; Stability in solution [3]: 于中性和弱碱性介质中稳定，但于强酸性和强碱性溶液中不稳定; Cytotoxicity or other toxicity [4]: 没有发现其细胞毒性或其它的毒性; Tolerability [4]: 耐受性很好 |
| N-Boc-Abu(0)-阿卡加定 [Boc-Abu-Acta] |  |  |  |  |  |  |  |  |  |  |  |  |  |  |  |  |  |  |  |  | MIC (金黄色葡萄球菌SG511; [9]): 5 µg/mL; MIC (金黄色葡萄球菌SG511; [10]): 10 µg/mL; MIC (金黄色葡萄球菌Exp54146; Boc-derivative table, 接种时间24h): > 40 µg/mL; MIC (化脓葡萄球菌A561; Boc-derivative table, 接种时间24h): > 40 µg/mL; MIC (屎肠球菌M78L; Boc-derivative table, 接种时间24h): > 40 µg/mL; MIC (大肠杆菌; Boc-derivative table, 接种时间24h): > 40 µg/mL |
| Phe(0)-阿卡加定 [Phe-Acta] | 0.6 µg/mL | 5 µg/mL | 5 µg/mL | > 40 µg/mL | > 40 µg/mL | > 40 µg/mL |  |  |  |  |  |  |  |  |  |  |  |  |  |  |  |
| Boc-Ile(0)-阿卡加定 [Boc-Ile-Acta] |  |  |  |  |  |  |  |  |  |  |  |  |  |  |  |  |  |  |  |  | MIC (金黄色葡萄球菌SG511; [9]): 20 µg/mL; MIC (金黄色葡萄球菌SG511; [10]): 40 µg/mL; MIC (金黄色葡萄球菌Exp54146; Boc-derivative table, 接种时间24h): > 40 µg/mL; MIC (化脓葡萄球菌A561; Boc-derivative table, 接种时间24h): > 40 µg/mL; MIC (屎肠球菌M78L; Boc-derivative table, 接种时间24h): > 40 µg/mL; MIC (大肠杆菌; Boc-derivative table, 接种时间24h): > 40 µg/mL |
